Where two headings read alike, the source gives them in different places.
How the values were obtained:
KAT-7 = KAT-7 (Homo sapiens (Human), UniProt O95251); assay: KAT-7 biochemical inhibition assay (SAMDI mass spectrometry)
Procedure: (§1) KAT-7. Enzyme assay buffer was 50 mM Tris pH 8.0, 0.002% Tween20, 0.005% bovine skin gelatin, and 1 mM dithiothreitol (DTT). For determination of IC50 values, compounds were serially diluted with 2% (v/v) DMSO in the final reaction, pre-incubating each dilution of each compound with 40 μL of assay buffer containing KAT-7 enzyme (6 nM final concentration). 10 μL of assay buffer containing 1 μM peptide substrate and 2 μM acetyl coenzyme A (final concentrations) was added. Reactions (50 μL total) were then carried out at 25° C. for 120 minutes. Reactions were terminated by the addition of 0.5% formic acid (final concentration), and a sample of each reaction was analyzed by SAMDI Tech, Inc. (Chicago, Ill.) using self-assembled monolayer desorption/ionization time-of-flight mass spectrometry (Mrksich, M. (2008) Mass spectrometry of self-assembled monolayers: a new tool for molecular surface science. ACS Nano 2, 7-18).

KAT-5 = KAT-5 (Homo sapiens (Human), UniProt Q92993); assay: KAT-5 biochemical inhibition assay (SAMDI mass spectrometry)
KAT-5, sequence (Q92993 other isoform, or with tags, fused parts or gaps): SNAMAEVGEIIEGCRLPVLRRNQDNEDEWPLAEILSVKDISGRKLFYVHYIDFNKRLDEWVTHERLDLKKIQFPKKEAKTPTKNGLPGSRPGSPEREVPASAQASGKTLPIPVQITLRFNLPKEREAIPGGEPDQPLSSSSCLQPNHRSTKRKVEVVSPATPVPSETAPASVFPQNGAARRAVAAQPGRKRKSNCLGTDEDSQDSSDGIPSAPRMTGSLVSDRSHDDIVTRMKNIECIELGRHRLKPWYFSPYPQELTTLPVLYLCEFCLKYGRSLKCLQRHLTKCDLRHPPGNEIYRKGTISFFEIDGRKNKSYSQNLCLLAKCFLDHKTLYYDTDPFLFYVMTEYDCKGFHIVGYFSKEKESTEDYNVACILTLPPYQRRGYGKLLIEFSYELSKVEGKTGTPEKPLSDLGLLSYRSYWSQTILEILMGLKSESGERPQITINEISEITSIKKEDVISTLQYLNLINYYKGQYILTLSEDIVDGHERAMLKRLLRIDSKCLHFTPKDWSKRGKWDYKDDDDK
Procedure: as §1, with “KAT-5. Enzyme” for “KAT-7. Enzyme”, “containing KAT-5” for “containing KAT-7”, “enzyme (9” for “enzyme (6”, “and 0.5” for “and 2”, “for 90” for “for 120”

KAT-6A = KAT-6A (Homo sapiens (Human), UniProt Q92794); assay: KAT-6A biochemical inhibition assay (SAMDI mass spectrometry)
KAT-6A, sequence (Q92794 other isoform, or with tags, fused parts or gaps): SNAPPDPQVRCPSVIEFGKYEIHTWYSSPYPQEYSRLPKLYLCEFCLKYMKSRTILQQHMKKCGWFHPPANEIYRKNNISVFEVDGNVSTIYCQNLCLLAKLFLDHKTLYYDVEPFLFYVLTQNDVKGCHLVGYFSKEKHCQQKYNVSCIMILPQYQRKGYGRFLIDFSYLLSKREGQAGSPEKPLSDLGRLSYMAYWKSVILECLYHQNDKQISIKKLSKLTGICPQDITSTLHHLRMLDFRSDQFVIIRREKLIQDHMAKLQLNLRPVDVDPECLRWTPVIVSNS
Procedure: as §1, with “KAT-6A. Enzyme” for “KAT-7. Enzyme”, “containing KAT-6A” for “containing KAT-7”, “enzyme (12.5” for “enzyme (6”, “and 1” for “and 2”, “for 90” for “for 120”

KAT-8 = KAT-8 (Homo sapiens (Human), UniProt Q9H7Z6); assay: KAT-8 biochemical inhibition assay (SAMDI mass spectrometry)
KAT-8, sequence (Q9H7Z6 other isoform, or with tags, fused parts or gaps): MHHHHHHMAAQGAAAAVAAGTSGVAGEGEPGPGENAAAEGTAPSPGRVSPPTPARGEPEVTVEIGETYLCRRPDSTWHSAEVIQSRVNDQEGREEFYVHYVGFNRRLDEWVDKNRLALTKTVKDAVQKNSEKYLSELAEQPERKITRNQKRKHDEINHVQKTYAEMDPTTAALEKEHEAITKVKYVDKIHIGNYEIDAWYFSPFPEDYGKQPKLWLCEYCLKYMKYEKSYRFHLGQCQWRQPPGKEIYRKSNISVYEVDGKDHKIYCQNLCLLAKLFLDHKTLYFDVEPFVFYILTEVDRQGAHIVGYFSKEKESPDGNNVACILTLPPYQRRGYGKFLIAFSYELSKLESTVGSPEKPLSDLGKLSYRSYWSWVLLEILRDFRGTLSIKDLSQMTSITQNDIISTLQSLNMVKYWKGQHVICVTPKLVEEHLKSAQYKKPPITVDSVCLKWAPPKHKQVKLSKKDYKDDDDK
Procedure: as §1, with “KAT-8. Enzyme” for “KAT-7. Enzyme”, “containing KAT-8” for “containing KAT-7”, “enzyme (12.5” for “enzyme (6”, “and 5” for “and 2”, “for 90” for “for 120”

KAT-7, sequence (O95251 other isoform, or with tags, fused parts or gaps): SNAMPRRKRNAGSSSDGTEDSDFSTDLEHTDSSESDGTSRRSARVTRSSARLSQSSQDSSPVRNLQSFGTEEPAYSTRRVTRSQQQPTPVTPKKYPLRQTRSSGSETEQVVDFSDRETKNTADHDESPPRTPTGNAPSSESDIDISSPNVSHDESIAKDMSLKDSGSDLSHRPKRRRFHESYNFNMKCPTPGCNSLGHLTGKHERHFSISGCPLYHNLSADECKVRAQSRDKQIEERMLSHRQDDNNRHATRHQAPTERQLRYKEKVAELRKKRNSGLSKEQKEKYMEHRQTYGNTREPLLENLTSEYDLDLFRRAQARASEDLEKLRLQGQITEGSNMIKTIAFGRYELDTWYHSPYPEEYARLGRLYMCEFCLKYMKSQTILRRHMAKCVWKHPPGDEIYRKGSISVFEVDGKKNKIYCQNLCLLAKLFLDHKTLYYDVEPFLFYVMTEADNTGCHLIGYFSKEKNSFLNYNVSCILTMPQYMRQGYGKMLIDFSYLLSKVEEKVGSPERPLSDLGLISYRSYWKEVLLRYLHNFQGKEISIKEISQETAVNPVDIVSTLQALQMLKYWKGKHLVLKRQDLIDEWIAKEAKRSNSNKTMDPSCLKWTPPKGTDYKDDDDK

IC50 (KAT-7) [µM] | IC50 (KAT-5) [µM] | IC50 (KAT-6A) [µM] | IC50 (KAT-8) [µM] | IC50 (KAT-7; Table 5) [µM] | IC50 (KAT-5; Table 5) [µM] | IC50 (KAT-6A; Table 5) [µM] | Structure (SMILES)
< 10 | 10 to 50 | 10 to 50 | – | – | – | – | Cn1cnc(-c2cc(Cl)c(F)c(C(=O)NNS(=O)(=O)Cc3ccnn3C)c2)c1 [Compound I-480]
– | < 10 | < 10 | > 100 | – | – | – | Cn1cnc(-c2cc(Cl)c(F)c(C(=O)NNS(=O)(=O)c3cccc(N)n3)c2)c1 [Compound I-392]
– | < 10 | 10 to 50 | > 100 | – | – | – | CN(C(=O)OC(C)(C)C)C1CC(CS(=O)(=O)NNC(=O)c2cc(-c3cn(C)cn3)cc(Cl)c2F)C1 (stereo not drawn) [Compound I-390]
– | – | – | – | > 100 | > 100 | > 100 | CNCCCS(=O)(=O)NNC(=O)c1cc(-c2cccc(C)c2)cc(Cl)c1F [Compound A-27]
– | < 10 | < 10 | 10 to 50 | – | – | – | Cn1cnc(-c2cc(Cl)c(F)c(C(=O)NNS(=O)(=O)CC3CCCC(NC(=O)Cc4ccccn4)C3)c2)c1 (stereo not drawn) [Compound I-268]
– | < 10 | < 10 | 10 to 50 | – | – | – | COC1CCCC(CS(=O)(=O)NNC(=O)c2cc(-c3cn(C)cn3)cc(Cl)c2F)C1 (stereo not drawn) [Compound I-270]
– | – | – | > 100 | – | – | – | COc1ccc(COc2cccc(S(=O)(=O)NNC(=O)c3cc(-c4cn(C)cn4)cc(Cl)c3F)c2)cc1 [Compound I-397]
– | < 10 | < 10 | > 100 | – | – | – | Cn1cnc(-c2cc(Cl)c(F)c(C(=O)NNS(=O)(=O)c3cccc(NCc4ccccc4)n3)c2)c1 [Compound I-393]
– | – | – | – | ≤ 10 | 10 to 50 | 50 to 100 | Cc1cccc(-c2cc(Cl)c(F)c(C(=O)NNS(=O)(=O)C3CCC(NC(=O)OC(C)(C)C)C3)c2)c1 (stereo not drawn) [Compound A-19]
< 10 | < 10 | < 10 | – | – | – | – | Cn1cnc(-c2cc(Cl)c(F)c(C(=O)NNS(=O)(=O)CC3CCC(OCCO)CC3)c2)c1 (stereo not drawn) [Compound I-467]
– | – | – | – | 10 to 50 | > 100 | > 100 | Cc1cccc(-c2cc(Cl)c(F)c(C(=O)NNS(=O)(=O)C3CCC(N)C3)c2)c1 (stereo not drawn) [Compound A-20]
– | – | – | – | ≤ 1 | ≤ 10 | ≤ 1 | O=C(NNS(=O)(=O)c1cccc(O)c1)c1cc(-c2ccccc2)cc(F)c1F [Compound A-29]
< 10 | < 10 | < 10 | – | – | – | – | CCc1cccc(S(=O)(=O)NNC(=O)c2cc(-c3ccccn3)cc(Cl)c2F)c1 [Compound I-478]
– | – | – | – | ≤ 1 | ≤ 1 | ≤ 1 | O=C(NNS(=O)(=O)c1cccc(O)c1)c1cc(-c2ccccc2)cc(Cl)c1F [Compound A-31]
< 10 | < 10 | < 10 | – | – | – | – | Cn1cnc(-c2cc(Cl)c(F)c(C(=O)NNS(=O)(=O)Cc3ccn(C)n3)c2)c1 [Compound I-479]
– | – | – | – | ≤ 1 | 10 to 50 | 10 to 50 | Cc1cccc(-c2cc(Cl)c(F)c(C(=O)NNS(=O)(=O)CC3CCCCN(C(=O)OC(C)(C)C)C3)c2)c1 (stereo not drawn) [Compound A-22]
< 10 | < 10 | 10 to 50 | – | – | – | – | CN(CC(F)(F)F)C1CCCC(CS(=O)(=O)NNC(=O)c2cc(-c3cn(C)cn3)cc(Cl)c2F)C1 (stereo not drawn) [Compound I-473]
< 10 | < 10 | < 10 | – | – | – | – | Cn1cnc(-c2cc(Cl)c(F)c(C(=O)NNS(=O)(=O)Cc3nn(C)cc3Cl)c2)c1 [Compound I-474]
– | – | – | – | > 100 | > 100 | > 100 | CNCCCS(=O)(=O)NNC(=O)c1cc(-c2cccc(C)c2)ccc1F [Compound A-26]
– | – | – | – | ≤ 10 | 10 to 50 | 10 to 50 | Cc1cccc(-c2cc(Cl)c(F)c(C(=O)NNS(=O)(=O)CC3CN(C(=O)OC(C)(C)C)C3)c2)c1 [Compound A-12]

IC50 (KAT-7) [µM] | IC50 (KAT-5) [µM] | IC50 (KAT-6A) [µM] | IC50 (KAT-8) [µM] | IC50 (KAT-7; Table 5) [µM] | IC50 (KAT-5; Table 5) [µM] | IC50 (KAT-6A; Table 5) [µM] | Structure (SMILES)
– | – | – | – | 10 to 50 | > 100 | > 100 | Cc1cccc(-c2cc(Cl)c(F)c(C(=O)NNS(=O)(=O)C(C)C3CCCNC3)c2)c1 (stereo not drawn) [Compound A-25]
– | – | – | – | 10 to 50 | > 100 | > 100 | Cc1cccc(-c2cc(Cl)c(F)c(C(=O)NNS(=O)(=O)CC3CNC3)c2)c1 [Compound A-13]
– | – | – | – | 10 to 50 | > 100 | > 100 | Cc1cccc(-c2cc(Cl)c(F)c(C(=O)NNS(=O)(=O)CC3CNCCN3C)c2)c1 (stereo not drawn) [Compound A-32]
– | – | – | – | ≤ 10 | > 100 | 10 to 50 | Cc1cccc(-c2cc(Cl)c(F)c(C(=O)NNS(=O)(=O)CC3CN(C)CCN3C)c2)c1 (stereo not drawn) [Compound A-17]
< 10 | < 10 | < 10 | – | – | – | – | CCc1cc(O)cc(S(=O)(=O)NNC(=O)c2cc(-c3ccccn3)cc(Cl)c2F)c1 [Compound I-483]
– | – | – | – | 10 to 50 | > 100 | > 100 | Cc1cccc(-c2cc(Cl)c(F)c(C(=O)NNS(=O)(=O)CC3CN(C(=O)OC(C)(C)C)CCN3C(=O)OC(C)(C)C)c2)c1 (stereo not drawn) [Compound A-14]
< 10 | < 10 | < 10 | – | – | – | – | O=C(NNS(=O)(=O)c1cccc(O)c1)c1cc(-c2ccccn2)cc(Cl)c1F [Compound I-481]
– | – | – | – | ≤ 10 | > 100 | > 100 | Cc1cccc(-c2cc(Cl)c(F)c(C(=O)NNS(=O)(=O)CC3CNCCN3)c2)c1 (stereo not drawn) [Compound A-15]
– | – | – | – | ≤ 1 | ≤ 1 | ≤ 1 | Cc1cc(-c2cccc(F)c2)cc(C(=O)NNS(=O)(=O)c2cccc(O)c2)c1F [Compound A-28]
– | – | – | – | ≤ 1 | ≤ 10 | ≤ 1 | COc1cccc(S(=O)(=O)NNC(=O)c2cc(-c3ccccc3)cc(Cl)c2F)c1 [Compound A-16]
– | > 100 | > 100 | – | – | – | – | Cn1cnc(-c2cc(Cl)c(F)c(C(=O)NNS(=O)(=O)CC3CN(C(=O)OC(C)(C)C)CCN3C(=O)OC(C)(C)C)c2)c1 (stereo not drawn) [Compound I-469]
– | – | – | – | ≤ 10 | 50 to 100 | 10 to 50 | Cc1cccc(-c2cc(Cl)c(F)c(C(=O)NNS(=O)(=O)CC3CN(C)CCN3)c2)c1 (stereo not drawn) [Compound A-24]
– | – | – | – | ≤ 10 | > 100 | > 100 | Cc1cccc(-c2cc(Cl)c(F)c(C(=O)NNS(=O)(=O)CC3CCCCNC3)c2)c1 (stereo not drawn) [Compound A-21]
50 to 100 | > 100 | > 100 | – | – | – | – | Cn1cnc(-c2cc(C(=O)NNS(=O)(=O)CC3CCCCC3)c(F)c(Cl)c2N(C(=O)OC(C)(C)C)C(=O)OC(C)(C)C)c1 [Compound I-475]
– | > 100 | > 100 | – | – | – | – | Cn1cnc(-c2cc(Cl)c(F)c(C(=O)NNS(=O)(=O)CC3CNCCN3)c2)c1 (stereo not drawn) [Compound I-472]
– | – | – | 10 to 50 | – | – | – | CNC(=O)N[C@H]1C[C@@H](CS(=O)(=O)NNC(=O)c2cc(-c3cn(C)cn3)cc(Cl)c2F)C1 [Compound I-197]
< 10 | < 10 | < 10 | – | – | – | – | Cn1cnc(-c2cc(Cl)c(F)c(C(=O)NNS(=O)(=O)C[C@H]3CC[C@H](N(C)CC(F)(F)F)CC3)c2)c1 [Compound I-471]
– | – | – | – | ≤ 1 | > 100 | > 100 | Cc1cccc(-c2cc(Cl)c(F)c(C(=O)NNS(=O)(=O)C(C)C3CCCN(C(=O)OC(C)(C)C)C3)c2)c1 (stereo not drawn) [Compound A-23]
< 10 | < 10 | < 10 | – | – | – | – | Cn1cnc(-c2cc(C(=O)NNS(=O)(=O)CC3CCCCC3)c(F)c(Cl)c2N)c1 [Compound I-476]
